For assay [1], the system named is human platelet rich plasma (platelet aggregation). Kind of assay: platelet aggregation (PA) inhibition assay in human platelet rich plasma. Format: cell-based. The procedure: In addition to the GPIIb IIIa ELISA assay, platelet aggregation assays may be performed in human platelet rich plasma (PRP). […] The blood is centrifuged at 160×g for 10 min at 22° C. and then allowed to stand for 5 min after which the PRP is decanted. Platelet poor plasma (PPP) is isolated from the remaining blood after centrifugation at 2000×g for 25 min. The platelet count of the PRP is adjusted to ca. 300,000 per microliter with PPP.
A 225 mL aliquot of PRP plus 25 mL of either a dilution of the test sample or a control (PBS) is incubated for 5 min in a Chrono-log Whole Blood Aggregometer at 25° C. An aggregating agent (collagen, 1 mg/ml; U46619, 100 ng/ml; or ADP, 8 mM) is added and the platelet aggregation recorded.

Assay [2] concerns the target T1, human platelet GPIIbIIIa receptor (Homo sapiens, UniProt P05106+P08514).
T1 construct: purified human platelet GPIIbIIIa receptor; from tissue; host or cells: human platelets (purified, solubilized receptor)
Briefly: modified fibrinogen-GPIIbIIIa ELISA (inhibition of fibrinogen binding to purified human platelet GPIIbIIIa receptor). The method, then:
In-vitro biological activity of the compounds of Formula I and II are monitored using a modified fibrinogen-GPIIbIIIa ELISA based on the method of Nachman and Leung (J. Clin. Invest. 69:263-269 (1982)) which measures the inhibition of fibrinogen binding to purified human platelet GPIIbIIIa receptor. Human fibrinogen is prepared by the method of Lipinska, et al. (J. Lab. Clin. Med. 84:509-516 (1974)). Platelet GPIIb IIIa is prepared by the method of Fitzgerald, et al., Anal. Biochem.,151:169-177 (1985).
Briefly, microtiter plates are coated with fibrinogen ([…]) and then blocked with TACTS buffer containing 0.5% bovine serum albumin (BSA). (TACTS buffer contains 20mM Tris.HCl, pH 7.5, 0.02% sodium azide, 2 mM calcium chloride, 0.05% Tween 20, 150 mM sodium chloride.) The plate is washed with phosphate buffered saline (PBS) containing 0.01% Tween 20 and the sample to be determined added, followed by addition of solubilized GP IIbIIIa receptor ([…]) in TACTS, 0.5% BSA. After incubation, the plate is washed and 1 mg/ml of murine anti-platelet monoclonal antibody AP3 (Newman et al., Blood 65:227-232 (1985)) is added. After another wash a goat anti-mouse IgG conjugated to horseradish peroxidase is added. A final wash is performed and developing reagent buffer (10 mg o-phenylenediamine dihydrochloride, 0.0212% hydrogen peroxide, 0.22 mM citrate, 50 mM phosphate, pH 5.0) is added and then incubated until color develops. The reaction is stopped with 1N sulfuric acid and the absorbance at 492 nm is recorded.
On the technique in general: An ELISA detects its analyte on a solid surface through an enzyme-linked reagent.

The next assay has as its target GPIIb IIIa. The following applies: result in words, EP 372 486 (Hoffmann La Roche); cited from earlier work.
Where [3] appears, read: Platelet, read-out: IC50 PA(citrate).
Where [4] appears, read: ELISA, read-out: IC50 Fg/IIbIIIa.
Where [5] appears, read: Platelet, read-out: IC50 PA(heparin).
Where [6] appears, read: platelet aggregation, citrate, read-out: IC50 PA(citrate).
Where [7] appears, read: platelet aggregation, heparin, read-out: IC50 PA(heparin).

Where two headings read alike, the source gives them in different places.

T1 sequence (P08514 32-887 limits assumed): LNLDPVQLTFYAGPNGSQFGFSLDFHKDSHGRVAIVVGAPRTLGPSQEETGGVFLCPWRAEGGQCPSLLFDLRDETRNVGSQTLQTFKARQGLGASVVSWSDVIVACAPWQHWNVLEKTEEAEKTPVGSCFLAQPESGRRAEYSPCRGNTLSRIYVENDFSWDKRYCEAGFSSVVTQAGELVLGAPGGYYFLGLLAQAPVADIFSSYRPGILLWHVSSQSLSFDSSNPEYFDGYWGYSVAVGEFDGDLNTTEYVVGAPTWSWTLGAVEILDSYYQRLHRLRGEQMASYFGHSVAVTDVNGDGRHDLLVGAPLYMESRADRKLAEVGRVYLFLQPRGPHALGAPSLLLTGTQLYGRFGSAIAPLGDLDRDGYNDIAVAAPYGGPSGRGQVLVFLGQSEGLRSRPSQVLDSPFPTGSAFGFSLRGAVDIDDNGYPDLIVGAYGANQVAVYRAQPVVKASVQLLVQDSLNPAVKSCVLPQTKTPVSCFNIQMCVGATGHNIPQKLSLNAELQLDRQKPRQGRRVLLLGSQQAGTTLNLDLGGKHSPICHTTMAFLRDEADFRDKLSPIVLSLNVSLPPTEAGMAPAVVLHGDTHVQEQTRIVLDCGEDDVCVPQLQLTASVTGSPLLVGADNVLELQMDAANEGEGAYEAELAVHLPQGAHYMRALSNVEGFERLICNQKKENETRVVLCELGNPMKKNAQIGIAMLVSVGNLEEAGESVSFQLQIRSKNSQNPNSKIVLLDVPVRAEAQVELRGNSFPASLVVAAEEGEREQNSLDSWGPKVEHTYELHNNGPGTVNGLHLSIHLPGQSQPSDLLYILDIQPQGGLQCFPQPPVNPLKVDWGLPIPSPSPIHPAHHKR
T1 sequence (P08514 891-1039 limits assumed): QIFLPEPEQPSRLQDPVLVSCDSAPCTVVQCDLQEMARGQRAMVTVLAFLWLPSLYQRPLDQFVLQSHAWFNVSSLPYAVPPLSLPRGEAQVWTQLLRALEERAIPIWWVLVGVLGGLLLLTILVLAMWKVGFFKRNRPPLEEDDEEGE
T1 sequence (P05106 27-788): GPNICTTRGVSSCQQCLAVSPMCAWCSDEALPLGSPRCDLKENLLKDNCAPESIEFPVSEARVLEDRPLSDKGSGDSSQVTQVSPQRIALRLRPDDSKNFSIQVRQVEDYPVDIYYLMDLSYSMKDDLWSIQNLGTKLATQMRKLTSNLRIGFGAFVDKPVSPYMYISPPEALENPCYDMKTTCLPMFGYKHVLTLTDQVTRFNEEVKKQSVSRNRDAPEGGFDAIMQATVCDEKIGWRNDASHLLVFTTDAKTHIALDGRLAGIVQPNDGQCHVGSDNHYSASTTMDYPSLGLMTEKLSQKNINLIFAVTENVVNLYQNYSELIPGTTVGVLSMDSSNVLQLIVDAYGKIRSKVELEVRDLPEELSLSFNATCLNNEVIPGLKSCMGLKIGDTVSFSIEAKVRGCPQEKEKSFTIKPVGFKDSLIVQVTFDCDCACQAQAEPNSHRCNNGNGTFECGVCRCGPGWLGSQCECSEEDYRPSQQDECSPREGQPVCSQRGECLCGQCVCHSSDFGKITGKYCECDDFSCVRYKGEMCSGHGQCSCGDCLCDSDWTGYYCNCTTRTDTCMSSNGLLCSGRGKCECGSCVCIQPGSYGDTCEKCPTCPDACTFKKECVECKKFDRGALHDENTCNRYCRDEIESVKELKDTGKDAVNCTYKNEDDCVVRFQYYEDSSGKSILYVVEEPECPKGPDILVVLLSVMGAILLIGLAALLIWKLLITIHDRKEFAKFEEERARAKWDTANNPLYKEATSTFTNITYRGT

With `Cc1cnc2n1-c1ccc(C#CCCCCN)cc1C(=O)N(CCC(=O)O)C2` [H2 N(CH2)4 CC], the IC50 in assay [1] (setting [3]) stood at 8290 nM; in assay [2] (setting [4]) it was 57 nM.

As to `N=C(N)c1ccc(C(=O)Nc2cccc(C(=O)NCCC(=O)O)c2)cc1` [N-[3-(4-amidinobenzamido)benzoyl]-3-aminoproprionoic acid, reference compound], the IC50 in assay [1] (Platelet, internal standard, measured according to the assays described herein, anticoagulant not stated, read-out: PA inhibition assay IC50) was around 3000 nM; in assay [2] (internal standard, measured according to the assays described herein, read-out: Fg/GPIIb IIIa ELISA IC50), around 25 nM.

As to `N=C(N)c1ccc(C(=O)Nc2cccc(C(=O)NCCC(=O)O)c2)cc1` [drawing 2], the “IC50 in an ELISA measurement of fibrinogen GPIIb IIIa binding” value at GPIIb IIIa was “particular low IC50”.

`Cc1cnc2n1-c1ccc(C#Cc3ccc(C(=N)N)cc3)cc1C(=O)N(CCC(=O)O)C2` [p-H2 N(NH)CC6 H4 CC]: the IC50 in assay [1] (setting [3]) is 93 nM; in assay [1] (setting [5]) it was 240 nM; in assay [2] (setting [4]) it was 4 nM.

With `Cc1cnc2n1-c1ccc(OCc3ccc(C(=N)N)cc3)cc1C(=O)N(CCC(=O)O)C2` [p-H2 N(NH)CC6 H4 CH2 O], the IC50 was 133 nM in assay [1] (setting [3]), 220 nM in assay [1] (setting [5]) and 9 nM in assay [2] (setting [4]).

Take `Cc1nnc2n1-c1ccc(OCc3ccc(C(=N)N)cc3)cc1C(=O)N(CCC(=O)O)C2` [p-H2 N(NH)CC6 H4 CH2 O]: the values for the IC50 in assay [1] (setting [6]) and in assay [1] (setting [7]) were 5 nM and 86 nM, respectively.

For `N=C(N)c1ccc(COc2ccc3c(c2)C(=O)N(CCC(=O)O)Cc2nc4ccccc4c(=O)n2-3)cc1` [p-H2 N(NH)CC6 H4 CH2 O], the IC50 in assay [1] (setting [6]) was 540 nM; in assay [1] (setting [7]) it was 1700 nM.
